Assay results reported in US9125429B2, “High-potency sweetener composition with fatty acid and compositions sweetened therewith” (THE COCA-COLA COMPANY, priority 2005, dated 2015).

Tested on: panel of experts in the sensory evaluation of foods and beverages
Test: Sensory evaluation of sweetness linger and taste characteristics by expert panel
Type: in vivo
Design: key: 0=no sweetness linger; 1=very slight sweetness linger; 2=slight sweetness linger; 3=moderate sweetness linger; 4=moderately high sweetness linger; 5=high sweetness linger

Question: With rebaudioside A as the substance, how does the sweetness linger (Example Set G: 400 ppm REBA in citric acid/potassium citrate composition equivalent to diet lemon-lime beverage (sugar control 8 g in 100 ml citrate buffer), scale 0-5, sweetness 3-4 min after water rinse) read?
Answer: 5

Question: What about the sweetness linger (Example Set H: REBA (500 ppm; H41 360 ppm) in carbon-treated water, phosphoric acid (75%) to pH 2.4-2.5 (sugar control 10 g in 100 ml), scale 0-5) of the same substance?
Answer: 5
